Measured values: US8969361B2, “Cyclopropanecarboxylate esters of purine analogues” (Annji Pharmaceutical Co., Ltd., priority 2012, dated 2015)
In brackets after ≈: the same amount, converted by molar mass. Read-outs that look alike come from different tables or passages of the source.

Experiments:
[1] = Hydrolytic stability in buffer solutions of various pH (HPLC); format: physicochemical; settings: phosphate-buffered solution, read-out: half life value (T1/2), hydrolytic stability (converted)
From the text: Hydrochloric acid of 0.1 N was used for pH 1 solution. Samples were repeatedly, manually injected onto HPLC at specific time intervals at room temperature. The peak areas of the compounds were monitored by UV detection. […] The “half life value, T1/2,” means the time required for one-half of the total amount of a compound in a solution to be degraded by hydrolysis processes when the rate of removal is nearly exponential. […] A first order calculation was used to determine the rate constant for each buffer on the loss of peak area over time.

[2] = Aqueous solubility (HPLC); format: physicochemical; settings: thermodynamic from solid, water
Description: The solubility experiment procedure was modified due to chemical stabilities. Briefly, an excess of a test compound was added 0.5 mL of water in an one mL of vial, pre-equilibrated, and then sonicated at 23° C. for 3 min. Aliquots were filtered and analyzed for drug contents. The concentration of each compound was determined by HPCL, at λ=254 nm, 23° C. The aliquot containing the analyte was diluted 100× due to the detection limit of the instrument.

[3] = test system: HSV-1; assay: Herpetic keratitis in mice with cornea inoculated by HSV-1 (eye-drops); format: in vivo, Balb/c mice; settings: eye-drops 0.34% or 0.2% w/v in saline, 3 times a day; for corneal cloudiness, vehicle-treated group versus treated group: day-14; for severity of ocular disease symptoms (corneal clouding, stromal keratitis, blepharitis): day-21
Description: The effect of Compound 3 on herpetic keratitis was investigated in mice with cornea inoculated by HSV-1. Balb/c mice (eight weeks old, 25 g body weight) were anesthetized with isoflurane, and epithelium of both right and left corneas lightly scratched in a cross-hatch pattern (four horizontal and four vertical scratches) with a 26-gauge needle under a microscope. The mouse cornea was inoculated with 5 μL of HSV-1 suspension containing 2.5×10^6 plaque-forming units (PFU), or saline for control. After the inoculations, mice were assigned randomly to treatment groups (4˜5 mice per group), with both eyes treated with Compound 3 or ganciclovir or vehicle (saline) after lightly anaesthetized. Eight hours after HSV-1 inoculation, 1 drop (10 μl) of 0.34% or 0.2% w/v solution of compound 3 or ganciclovir in saline with anti-fungi agent (0.05 w/v amphotericin-B) was applied to each eye daily, 3 times a day. The keratitis was graded, recorded and scored daily for 21 days, and the eyes were examined with a microscopic camera at frequent intervals.

[4] = test system: Vero cells; assay: Toxicity to Vero cells; format: cell-based
[5] = test system: HSV-1; assay: Attenuation of HSV-1 induced cytopathic effects on Vero cells; format: cell-based; settings: HSV-1 at 10^-4 titration, treated 4 days, different concentrations
Description: Human epithelial (HEp-2) cells were cultured in MEM supplemented with 10% fetal calf serum and 10% heat activated newborn calf serum. Vero cells were cultured in RPMI-1640 and 10% heat activated newborn calf serum. Penicillin (1000 I.U./ml), streptomycin (100 μg/ml), and bicarbonate buffer were present in the medium, and cells were maintained at 37° C., 5% CO2, humidified atmosphere, and subcultured 2˜3 times a week.
The antiviral activity of Compound 3 was determined by evaluating the attenuation in HSV-1 induced cytopathic effects on Vero cells. Vero cells (10,000 cells/well) in a 96-well culture plate were infected with an increasingly diluted HSV-1 virus solution (10^−3 to 10^−5) in L15 medium. After 2 h incubation the unadsorbed virus was removed, the cell monolayer was washed with PBS. […] Every 24 hr the cytopathic effects were observed and photographed under microscope (FIG. 2). Anti-HSV-1 activity was determined by inhibition of cytopathic effect as compared with control. The cytopathic effects effects after HSV-1 propagation HSV-1 between Vero cells were quantified in terms of 50% tissue culture infective dose (TCID50, which was used to determine the infectious titer of HSV-1 which can cause cytopathic effects in culture).

[6] = 23° C., sonicated 3 min, read-out: aqueous solubility

| Structure (SMILES) | half-life at 1 mg/mL ([1]; pH 7.4, 40° C.) [h] | solubility at 3 min [2, 6] [mg/mL] | also measured |
| --- | --- | --- | --- |
| Nc1nc2c(ncn2COC(CO)COC(=O)C2(N)CC2c2ccco2)c(=O)[nH]1 (stereo not drawn) [Compound 10, 1-Amino-2-furan-2-yl-cyclopropanecarboxylic acid 2-(2-amino-6-oxo-1,6-dihydro-purin-9-ylmethoxy)-3-hydroxypropyl ester] | 29 | 260 (≈ 643 mM) |  |
| Nc1nc2c(ncn2COC(CO)COC(=O)C2(N)CC2c2ccc(Br)cc2)c(=O)[nH]1 (stereo not drawn) [Compound 5, 1-Amino-2-(4-bromo-phenyl)-cyclopropanecarboxylic acid 2-(2-amino-6-oxo-1,6-dihydro-purin-9-ylmethoxy)-3-hydroxypropyl ester] | 85 | 155 (≈ 314 mM) |  |
| CC1CC1(N)C(=O)OCC(CO)OCn1cnc2c(=O)[nH]c(N)nc21 (stereo not drawn) [Compound 8, 1-Amino-2-methyl-cyclopropanecarboxylic acid 2-(2-amino-6-oxo-1,6-dihydro-purin-9-ylmethoxy)-3-hydroxypropyl ester] | 58 |  |  |
| Nc1nc2c(ncn2COC(CO)COC(=O)C2(N)CC2c2ccccc2)c(=O)[nH]1 (stereo not drawn) [Compound 6, 1-Amino-2-phenyl-cyclopropanecarboxylic acid 2-(2-amino-6-oxo-1,6-dihydro-purin-9-ylmethoxy)-3-hydroxypropyl ester] | 75 | 170 (≈ 410 mM) |  |
| Nc1nc(O)c2ncn(COC(CO)CO)c2n1 [ganciclovir, reference compound] |  |  | solubility at 3 min ([2]; 23 °C): 2.6 mg/mL (≈ 10.2 mM); corneal cloudiness, vehicle-treated group versus treated group [3]: much more significant; severity of ocular disease symptoms (corneal clouding, stromal keratitis, blepharitis) [3]: reduced the severities in stromal keratitia and corneal clouding dramatically, but blephartitis still existed; toxicity to Vero cells ([4]; concentrations used in the antiviral test): nontoxic to Vero cells |
| CC1(C)CC1(N)C(=O)OCC(CO)OCn1cnc2c(=O)[nH]c(N)nc21 (stereo not drawn) [Compound 7, 1-Amino-2,2-dimethyl-cyclopropanecarboxylic acid 2-(2-amino-6-oxo-1,6-dihydro-purin-9-ylmethoxy)-3-hydroxypropyl ester] | 68 | 213 (≈ 581 mM) | melting point: > 300 °C |
| CNC1(C(=O)OCC(CO)OCn2cnc3c(=O)[nH]c(N)nc32)CC1 (stereo not drawn) [Compound 4, 1-Methylamino-cyclopropanecarboxylic acid 2-(2-amino-6-oxo-6-dihydro-purin-9-ylmethoxy)-3-hydroxypropyl ester] |  | 227 (≈ 644 mM) |  |
| Nc1nc2c(ncn2COC(CO)COC(=O)C2(N)CC2)c(=O)[nH]1 (stereo not drawn) [Compound 3, 1-amino-cyclopropanecarboxylic acid 2-(2-amino-6-oxo-1,6-dihydro-purin-9-ylmethoxy)-3-hydroxypropyl ester] | 53 | 180 (≈ 532 mM) | cytopathogenic effects of HSV-1 on Vero cells (morphological evaluation) [5]: reduced the cytopathogenic effects of HSV-1 on Vero cells in a concentration-dependent manner; half-life at 1 mg/mL ([1]; acidic solution (pH 4), 40° C.): > 300 h; melting point: > 300 °C; corneal cloudiness, vehicle-treated group versus treated group [3]: much more significant; severity of ocular disease symptoms (corneal clouding, stromal keratitis, blepharitis) [3]: eliminated the extra-ocular keratitis morphologies almost entirely; toxicity to Vero cells [4]: nontoxic to Vero cells |
| Nc1nc2c(ncn2COC(CO)COC(=O)C2(N)CC2c2ccccn2)c(=O)[nH]1 (stereo not drawn) [Compound 11, 1-Amino-2-pyridin-2-yl-cyclopropanecarboxylic acid 2-(2-amino-6-oxo-1,6-dihydro-purin-9-ylmethoxy)-3-hydroxypropyl ester] | 43 | 253 (≈ 609 mM) |  |
| Nc1nc2c(ncn2COC(CO)COC(=O)C2(N)CC2C(F)(F)F)c(=O)[nH]1 (stereo not drawn) [Compound 9, 1-Amino-2-trifluoromethyl-cyclopropanecarboxylic acid 2-(2-amino-6-oxo-1,6-dihydro-purin-9-ylmethoxy)-3-hydroxypropyl ester] | 33 | 261 (≈ 642 mM) |  |
